Measurements as given in patent US7057036B2, “Pyrrolothiazine and pyrrolothiazepine compounds having serotonin-2 receptor antagonistic and alpha-1-blocking action” (Daiichi Suntory Pharma Co., Ltd., priority 1997, dated 2006).

Key:
[1] = tested on: serotonin-2 receptors; experiment: Anti-serotonin (5-HT) action: 5-HT-induced contraction of isolated superior mesenteric artery; conditions: contraction by 10^−5 M 5-HT taken as 100%, guinea pig superior mesenteric artery
Protocol: (1) Anti-Serotonin (5-HT) Action
A preparation cut in a helical form was suspended under resting-tension of 0.3 g in a Magnus cylinder filled with the Tyrode solution which had been aerated with a gas mixture of 95% O2 and 5% CO2 and maintained at 37° C. Using an isometric transducer (“UL-10”, manufactured by SHINKOH K. K.) and a pressure preamplifier (“DSA-605A”, manufactured by SHINKOH K. K.), variations in tension were measured. The isometric tensions were recorded on a pen-writing recorder (“VP-6537A”, manufactured by NATIONAL K. K.). Taking the contraction induced by 10^−5 M serotonin (5-HT) as 100%, the percent contractions by 10^−5 M 5-HT in the presence of each test drug at 10^−7 M and 10^−6 M were determined as anti-5-HT action.

[2] = tested on: α1 receptors; experiment: Anti-α1 action: norepinephrine-induced tonic contraction of isolated thoracic aorta; conditions: tonic contraction by 10^−5 M norepinephrine taken as 100%, guinea pig thoracic aorta
Protocol: The thoracic aorta of each Hartley male guinea pig (body weight: 300–500 g) was excised. A preparation cut in a helical form was suspended under 1 g load in a Magnus cylinder filled with the Tyrode solution which had been aerated with a gas mixture of 95% O2 and 5% CO2 and maintained at 37° C. Using an isometric transducer (“TB-612J”, manufactured by Nihon Kohden Corporation) and a pressure preamplifier (“AP-620G”, manufactured by Nihon Kohden Corporation), variations in tension were measured. The isometric tensions were recorded on a thermal pen-writing recorder (“WT-647G”, manufactured by Nihon Kohden Corporation). Taking the tonic contraction induced by 10^−5 M norepinephrine (NE) as 100%, the percent contractions upon addition of each test drug at 10^−8 M and 10^−7 M were determined and recorded as α1 action.

| Structure (SMILES) | Anti 5-HT action (% of Control) ([1]; test drug 10^−6 M) | Anti 5-HT action (% of Control) ([1]; test drug 10^−7 M) | Anti α1 action (% of Control) ([2]; test drug 10^−7 M) | Anti α1 action (% of Control) ([2]; test drug 10^−8 M) |
| --- | --- | --- | --- | --- |
| Cn1ccc2c1C(=O)CCN(CCCN1CCC(C(=O)c3ccc(F)cc3)CC1)S2(=O)=O [Compound 22, 2-[3-[4-(4-fluorobenzoyl)piperidino]propyl]-6-methyl-3,4,5,6-tetrahydro-2H-pyrrolo[2,3-f][1,2]thiazepin-5-one 1,1-dioxide] | 21.3 % of Control | 75.3 % of Control | 64.9 % of Control | 91.2 % of Control |
| Cn1ccc2c1C(=NO)CN(CCCN1CCN(c3ccc(F)cc3)CC1)S2(=O)=O [Compound 25, 2-[3-[4-(4-fluorophenyl)piperazin-1-yl]propyl]-4-hydroxyimino-5-methyl-2,3,4,5-tetrahydropyrrolo[2,3-e][1,2]thiazine 1,1-dioxide] | 19.6 % of Control | 69.8 % of Control | 24.1 % of Control | 65.3 % of Control |
| Cn1ccc2c1C(=NO)CN(CCCN1CCC(C(=O)c3ccc(F)cc3)CC1)S2(=O)=O [Compound 26, 2-[3-[4-(4-fluorobenzoyl)piperidino]propyl]-4-hydroxyimino-5-methyl-2,3,4,5-tetrahydropyrrolo[2,3-e][1,2]thiazine 1,1-dioxide] | 18.2 % of Control | 54.6 % of Control | 73.1 % of Control | 99.6 % of Control |
| Cn1ccc2c1C(=NO)CCN(CCCN1CCN(c3ccc(F)cc3)CC1)S2(=O)=O [Compound 27, 2-[3-[4-(4-fluorophenyl)piperazin-1-yl]propyl]-5-hydroxyimino-6-methyl-3,4,5,6-tetrahydro-2H-pyrrolo[2,3-f][1,2]thiazepine 1,1-dioxide] | 22.7 % of Control | 76.2 % of Control | 53.0 % of Control | 91.2 % of Control |
| Cn1ccc2c1C(O)CCN(CCCN1CCN(c3ccc(F)cc3)CC1)S2(=O)=O (centres unmarked) [Compound 30, 2-[3-[4-(4-fluorophenyl)piperazin-1-yl]propyl]-5-hydroxy-6-methyl-3,4,5,6-tetrahydro-2H-pyrrolo[2,3-f][1,2]thiazepine 1,1-dioxide] | 37.2 % of Control | 83.5 % of Control | 88.0 % of Control | 102.3 % of Control |
